From patent publication US8815939B2, “Substituted sulfamide derivatives” (Janssen Pharmaceutica NV, priority 2008, dated 2014)

Tests used:
Type in all cases: in vivo
CF-1 male albino mice = assay: Maximal Electroshock Test (MES), anticonvulsant activity
Description: Anticonvulsant activity was determined using the MES test, run according to the procedure described in detail below. Swinyard E A, Woodhead J H, White H S, Franklin M R. Experimental selection, quantification, and evaluation of anticonvulsants. In Levy R H, et al., eds. Antiepileptic Drugs. 3rd ed. New York: Raven Press, 1989:85-102.
CF-1 male albino mice (25-35 g) were fasted for 16 hours before testing. Mice were randomly selected into control and test groups, with the animals dosed with vehicle or test compound, at varying concentrations, respectively. […] Seizures were induced by trans-corneal electric shock using a 60-Hz alternating current, 50 mA, delivered for 0.2 sec. […] […] The test was complete when the entire course of the convulsion has been observed (typically, less than 1 minute after electrical stimulation), and the mice were then immediately euthanized by carbon dioxide inhalation.
Abolition of the full body tonic extensor component of the seizure was taken as the endpoint of the test. […] The ED50 value of the test compound (calculated when appropriate) was the calculated dose required to block the hind limb tonic-extensor component of the MES-induced seizure in 50% of the rodents tested. A probit analysis was used to calculate the ED50 and 95% fiducial limits (FL).
Results are listed as (number of mice with full body tonic extension prevented)/(total number of mice tested) (@ a given time).

[1] = Mice studies dosing with the compound of formula (A): plasma and brain analyses; details: mice dosed with the compound of formula (A)
Source text: (§1) The compound of formula (A) was initially isolated from human plasma samples from clinical trials dosing with the compound of formula (S). Additionally, the compound of formula (A) is a pro-drug of the compound of formula (S).

[2] = Human plasma samples from clinical trials dosing with the compound of formula (S)
Source text: and pharmaceutically acceptable salts thereof.
as §1

SMILES | MES Activity, (number of mice with full body tonic extension prevented)/(total number of mice tested) (CF-1 male albino mice; 200 mg/kg po, 0.50 Hrs) | MES Activity, (number of mice with full body tonic extension prevented)/(total number of mice tested) (CF-1 male albino mice; 200 mg/kg po, 1.0 Hrs) | MES Activity, (number of mice with full body tonic extension prevented)/(total number of mice tested) (CF-1 male albino mice; 200 mg/kg po, 2 Hrs) | MES Activity, (number of mice with full body tonic extension prevented)/(total number of mice tested) (CF-1 male albino mice; 200 mg/kg po, 3 Hrs) | MES Activity, (number of mice with full body tonic extension prevented)/(total number of mice tested) (CF-1 male albino mice; 200 mg/kg po, 6 Hrs) | plasma and brain levels of compound (A) and compound (S) after dosing (pro-drug conversion) [1] | MES Activity, (number of mice with full body tonic extension prevented)/(total number of mice tested) (CF-1 male albino mice; 150 mg/kg po, 3 Hrs) | metabolite found in human plasma [2]
CC(=O)NS(=O)(=O)NC[C@H]1COc2cc(Cl)ccc2O1 [Compound (A), (2S)-(−)-N′-acetyl-N-(6-chloro-2,3-dihydro-benzo[1,4]dioxin-2-ylmethyl)-sulfamide] | 0/5 | 1/5 | 4/5 | 5/5 | 2/5 | levels of the compound of formula (S) higher than those of the compound of formula (A) | – | –
NS(=O)(=O)NC[C@H]1COc2cc(Cl)ccc2O1 [Compound (S), (2S)-(−)-N-(6-chloro-2,3-dihydro-benzo[1,4]dioxin-2-ylmethyl)-sulfamide, reference compound] | – | – | – | – | – | – | 5/5 | The compound of formula (A) is a human metabolite of the compound of formula (S)
